One test concerns the target IMP-1 (Serratia marcescens, UniProt P52699). Kind of test: biochemical. The format is biochemical. Conditions: fluorescence assay with CCF2-FA substrate; read-out: IMP-1 IC50.
In the next test the target is VIM-1 (Pseudomonas aeruginosa (strain ATCC 15692 / DSM 22644 / CIP 104116 / JCM 14847 / LMG 12228 / 1C / PRS 101 / PAO1), UniProt A0A0F7KYQ8). Kind of test: Enzyme activity: determination of IC50, fluorescence assay with CCF2-FA substrate (VIM-1). Type of test: biochemical.
A further test has as its target NDM-1 (Klebsiella pneumoniae, UniProt C7C422). The test is described as follows: biochemical. Conditions: fluorescence assay with CCF2-FA substrate; read-out: NDM-1 IC50. The format is biochemical.
The subject of test [1] is Serratia marcescens expressing IMP-1 (CL5741). Kind of test: Antibiotic potentiation activity: synergistic concentration (MITC95) with imipenem, OD600 growth. Type of test: cell-based. Conditions: concentration giving 95% inhibition of bacterial growth. In short, it runs like this:
(§1)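 Compound activity is tested with and without imipenem, which is present at 4 μg/ml (or 1 μg/ml) in the well. Bacteria in 1.1× CAMHB are incubated 22–24 h at 35 °C; absorbance gives the growth endpoint.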

Test [2] concerns Escherichia coli expressing NDM-1 (CLB30005). Described as above. The format is cell-based. Conditions: concentration giving 95% inhibition of bacterial growth. In short, it runs like this:
as §1

Test [3] deals with Klebsiella pneumoniae expressing VIM-1 (IHMA599644). The description is as above. Type of test: cell-based. Conditions: concentration giving 95% inhibition of bacterial growth. In short, it runs like this:
as §1

The mark [4] stands for this setting: fluorescence assay with CCF2-FA substrate, read-out: VIM-1 IC50.
The mark [5] stands for this setting: VIM-1 IC50, fluorescence assay with CCF2-FA substrate.

SMILES strings stand for the structures. pIC50: −log10 of the molar value. Read-outs that look alike come from different tables or passages of the source.

Chain of NDM-1 (C7C422 whole entry, looked up, species assumed): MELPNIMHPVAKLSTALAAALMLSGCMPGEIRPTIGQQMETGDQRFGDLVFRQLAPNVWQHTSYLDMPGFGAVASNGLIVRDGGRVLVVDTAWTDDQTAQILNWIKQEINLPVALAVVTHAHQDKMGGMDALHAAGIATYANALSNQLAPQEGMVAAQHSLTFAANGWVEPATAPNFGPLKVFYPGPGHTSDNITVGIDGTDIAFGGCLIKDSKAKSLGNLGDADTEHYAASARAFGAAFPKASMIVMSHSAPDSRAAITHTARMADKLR
Chain of IMP-1 (P52699 whole entry, looked up): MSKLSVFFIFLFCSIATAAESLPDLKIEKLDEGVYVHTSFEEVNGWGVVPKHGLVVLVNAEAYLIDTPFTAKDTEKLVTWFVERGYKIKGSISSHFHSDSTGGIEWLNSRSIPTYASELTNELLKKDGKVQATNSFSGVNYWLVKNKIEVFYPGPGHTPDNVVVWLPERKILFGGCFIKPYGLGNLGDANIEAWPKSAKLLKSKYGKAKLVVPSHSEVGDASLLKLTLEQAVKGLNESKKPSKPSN

Consider `Cn1ncc2cc(-c3cccc(S(N)(=O)=O)c3-c3nn[nH]n3)ccc21` [Example 68, 3-(1-methyl-1H-indazol-5-yl)-2-(2H-tetrazol-5-yl)benzenesulfonamide], for which the negative logarithm of the IC50 (pIC50) (in general, the IC50 on a negative log10 scale, so that one unit is a factor of ten) at IMP-1 was 7.09; on VIM-1 (setting [4]), 7.47; at NDM-1, 8.70. Moreover, in test [1], the “Serratia marcescens expressing IMP-1 (CL5741) MITC95” value stood at 12.5 µM. In addition, the “Escherichia coli expressing NDM-1 (CLB 30005) MITC95” value in test [2] came out at 2.344 µM. The “Klebsiella pneumoniae expressing VIM-1 (IHMA 599644) MITC95” value in test [3] stood at 75 µM.
Take `NS(=O)(=O)c1cccc(-c2ccc3c(=O)nc[nH]c3c2)c1-c1nn[nH]n1` [Example 69, 3-(4-oxo-1,4-dihydroquinazolin-7-yl)-2-(2H-tetrazol-5-yl)benzenesulfonamide]: the pIC50 was 6.63 at IMP-1, 7.58 on VIM-1 (setting [4]) and 8.30 on NDM-1. Moreover, the “Serratia marcescens expressing IMP-1 (CL5741) MITC95” value in test [1] is 18.75 µM. The “Escherichia coli expressing NDM-1 (CLB 30005) MITC95” value in test [2] turned out to be 0.7813 µM. The “Klebsiella pneumoniae expressing VIM-1 (IHMA 599644) MITC95” value in test [3] is 25 µM.
As for `NS(=O)(=O)c1cccc(-c2cccc(-n3nccn3)c2)c1-c1nn[nH]n1` [Example 70, 2-(2H-tetrazol-5-yl)-3′-(2H-1,2,3-triazol-2-yl)biphenyl-3-sulfonamide], the negative-log IC50 (pIC50) was 6.98 at IMP-1, 7.54 on VIM-1 (setting [4]) and 8.70 on NDM-1. Moreover, the “Serratia marcescens expressing IMP-1 (CL5741) MITC95” value in test [1] stood at 18.75 µM. In addition, the “Escherichia coli expressing NDM-1 (CLB 30005) MITC95” value in test [2] stood at 1.563 µM. In addition, the “Klebsiella pneumoniae expressing VIM-1 (IHMA 599644) MITC95” value in test [3] was 150 µM.
In the case of `NS(=O)(=O)c1cccc(-c2ccc3ccncc3c2)c1-c1nn[nH]n1` [Example 71, 3-isoquinolin-7-yl-2-(2H-tetrazol-5-yl)benzenesulfonamide], the pIC50 is 7.10 at IMP-1, 7.84 at VIM-1 (setting [4]) and 8.91 on NDM-1. Also, the “Serratia marcescens expressing IMP-1 (CL5741) MITC95” value in test [1] was 18.75 µM. The “Escherichia coli expressing NDM-1 (CLB 30005) MITC95” value in test [2] was found to be 0.7813 µM. Further, the “Klebsiella pneumoniae expressing VIM-1 (IHMA 599644) MITC95” value in test [3] stood at 75 µM.
For `NS(=O)(=O)c1cccc(-c2ccc(-c3nnn[nH]3)cc2)c1-c1nn[nH]n1` [Example 72, 4′-(1H-tetrazol-5-yl)-2-(2H-tetrazol-5-yl)biphenyl-3-sulfonamide], the figures for the pIC50 on IMP-1, on VIM-1 (setting [4]) and at NDM-1 were 7.31, 7.65 and 9.20, respectively. Further, the “Serratia marcescens expressing IMP-1 (CL5741) MITC95” value in test [1] is 12.5 µM. The “Escherichia coli expressing NDM-1 (CLB 30005) MITC95” value in test [2] is 2.344 µM. Further, in test [3], the “Klebsiella pneumoniae expressing VIM-1 (IHMA 599644) MITC95” value is 25 µM.
On to `CC1C(=O)Nc2ccc(-c3cccc(S(N)(=O)=O)c3-c3nn[nH]n3)cc21` (stereo not drawn) [Example 73, 3-(3-methyl-2-oxo-2,3-dihydro-1H-indo1-5-yl)-2-(2H-tetrazol-5-yl)benzenesulfonamide], for which the negative logarithm of the IC50 (pIC50) at IMP-1 was 6.81; on VIM-1 (setting [4]), 7.18; on NDM-1, 8.19. Further, the “Serratia marcescens expressing IMP-1 (CL5741) MITC95” value in test [1] was found to be 18.75 µM. Besides, the “Escherichia coli expressing NDM-1 (CLB 30005) MITC95” value in test [2] is 1.563 µM. In addition, the “Klebsiella pneumoniae expressing VIM-1 (IHMA 599644) MITC95” value in test [3] was found to be 100 µM.
In the case of `NS(=O)(=O)c1cccc(-c2ccc3[nH]nnc3c2)c1-c1nn[nH]n1` [Example 74, 3-(1H-benzotriazol-5-yl)-2-(2H-tetrazol-5-yl)benzenesulfonamide], the pIC50 at IMP-1 is 5.79; against VIM-1 (setting [5]) it was 6.32; on NDM-1 it was 7.58. For the same compound, the “Serratia marcescens expressing IMP-1 (CL5741) MITC95” value in test [1] stood at 18.75 µM. Besides, the “Escherichia coli expressing NDM-1 (CLB 30005) MITC95” value in test [2] is 0.9766 µM. For the same compound, the “Klebsiella pneumoniae expressing VIM-1 (IHMA 599644) MITC95” value in test [3] was determined as 50 µM.
For `CC1(c2ccc(-c3cccc(S(N)(=O)=O)c3-c3nn[nH]n3)cc2)SC(=O)NC1=O` (stereo not drawn) [Example 75, 4′-(5-methyl-2,4-dioxo-1,3-thiazolidin-5-yl)-2-(2H-tetrazol-5-yl)biphenyl-3-sulfonamide], the pIC50 at IMP-1 is 8.00; at VIM-1 (setting [4]), 7.01; on NDM-1 it was 8.34. Also, the “Serratia marcescens expressing IMP-1 (CL5741) MITC95” value in test [1] is 3.906 µM. Also, the “Escherichia coli expressing NDM-1 (CLB 30005) MITC95” value in test [2] came out at 6.25 µM. The “Klebsiella pneumoniae expressing VIM-1 (IHMA 599644) MITC95” value in test [3] is greater than 200 µM.
For `NS(=O)(=O)c1cccc(-c2ccc(CC3OC(=O)NC3=O)cc2)c1-c1nn[nH]n1` (stereo not drawn) [Example 76, 4′-[(2,4-dioxo-1,3-oxazolidin-5-yl)methyl]-2-(2H-tetrazol-5-yl)biphenyl-3-sulfonamide], the pIC50 is 7.37 on IMP-1, 6.61 at VIM-1 (setting [4]) and 7.77 at NDM-1. The “Serratia marcescens expressing IMP-1 (CL5741) MITC95” value in test [1] stood at 6.25 µM. Also, the “Escherichia coli expressing NDM-1 (CLB 30005) MITC95” value in test [2] was 6.25 µM. Moreover, in test [3], the “Klebsiella pneumoniae expressing VIM-1 (IHMA 599644) MITC95” value is greater than 200 µM.
Turning to `COc1ccc(-c2cccc(S(N)(=O)=O)c2-c2nn[nH]n2)cn1` [Example 78, 3-(6-methoxypyridin-3-yl)-2-(2H-tetrazol-5-yl)benzenesulfonamide], the negative logarithm of the IC50 (pIC50) at IMP-1 was 6.69; on VIM-1 (setting [4]), 6.83; on NDM-1 it was 7.71. In addition, the “Serratia marcescens expressing IMP-1 (CL5741) MITC95” value in test [1] stood at 18.75 µM. Besides, the “Escherichia coli expressing NDM-1 (CLB 30005) MITC95” value in test [2] came out at 0.7813 µM. Also, the “Klebsiella pneumoniae expressing VIM-1 (IHMA 599644) MITC95” value in test [3] came out at 100 µM.
Consider `Cc1nc(F)ccc1-c1cccc(S(N)(=O)=O)c1-c1nn[nH]n1` [Example 79, 3-(6-fluoro-2-methylpyridin-3-yl)-2-(2H-tetrazol-5-yl)benzenesulfonamide], for which the pIC50 at IMP-1 is 5.40; at VIM-1 (setting [5]) it was 7.22; at NDM-1 it was 7.31. In test [1], the “Serratia marcescens expressing IMP-1 (CL5741) MITC95” value came to 150 µM. Moreover, the “Escherichia coli expressing NDM-1 (CLB 30005) MITC95” value in test [2] came out at 1.563 µM. Moreover, the “Klebsiella pneumoniae expressing VIM-1 (IHMA 599644) MITC95” value in test [3] is 25 µM.
As for `NS(=O)(=O)c1cccc(-c2ccc(O)nc2)c1-c1nn[nH]n1` [Example 80, 3-(6-hydroxypyridin-3-yl)-2-(2H-tetrazol-5-yl)benzenesulfonamide], the figures for the pIC50 on IMP-1, at VIM-1 (setting [5]) and at NDM-1 were 5.62, 6.27 and 7.09, respectively. Further, the “Serratia marcescens expressing IMP-1 (CL5741) MITC95” value in test [1] came to 50 µM. Also, the “Escherichia coli expressing NDM-1 (CLB 30005) MITC95” value in test [2] stood at 0.3906 µM. In addition, in test [3], the “Klebsiella pneumoniae expressing VIM-1 (IHMA 599644) MITC95” value was 25 µM.
Consider `NC(=O)c1cccc(-c2cccc(S(N)(=O)=O)c2-c2nn[nH]n2)c1` [Example 81, 3′-sulfamoyl-2′-(2H-tetrazol-5-yl)biphenyl-3-carboxamide], for which the negative logarithm of the IC50 (pIC50) at IMP-1 is 6.24; on VIM-1 (setting [4]) it was 6.59; on NDM-1 it was 7.46. Also, the “Serratia marcescens expressing IMP-1 (CL5741) MITC95” value in test [1] turned out to be 37.5 µM. Besides, the “Escherichia coli expressing NDM-1 (CLB 30005) MITC95” value in test [2] stood at 0.9766 µM. In addition, in test [3], the “Klebsiella pneumoniae expressing VIM-1 (IHMA 599644) MITC95” value worked out at 37.5 µM.
With `NS(=O)(=O)c1cccc(-c2cncc(F)c2)c1-c1nn[nH]n1` [Example 83, 3-(5-fluoropyridin-3-yl)-2-(2H-tetrazol-5-yl)benzenesulfonamide], the pIC50 on IMP-1 is 6.28; against VIM-1 (setting [5]) it was 7.36; at NDM-1 it was 8.22. Further, the “Serratia marcescens expressing IMP-1 (CL5741) MITC95” value in test [1] came to 50 µM. Also, the “Escherichia coli expressing NDM-1 (CLB 30005) MITC95” value in test [2] amounted to 0.3906 µM. Also, in test [3], the “Klebsiella pneumoniae expressing VIM-1 (IHMA 599644) MITC95” value came out at 25 µM.

For the origin of these results see patent publication US9708336B2, “Metallo-beta-lactamase inhibitors” (priority 2014, dated 2017).
